EP4786487A1, “PEPTIDE” (Peptidream Inc, priority 2023, dated 2025)
Starred links: 1 amine or outer side, 2 acyl side, 3 side chain; linkers in the order of their positions; H or OH if unused. Positions of bridges follow the written chain, without caps; N, C: chain ends. Non-standard residues stand in square brackets, D forms with d. Residues, ends and D or L forms follow the SMILES beside them. *: point of attachment. Ala(1-CH2CO2H-4-piperidyl) = N[C@@H](CC1CCN(CC(=O)O)CC1)C(=O)O; Phe(3-OCH2COOH) = N[C@@H](Cc1cccc(OCC(=O)O)c1)C(=O)O; Phe(4-COOH) = N[C@@H](Cc1ccc(C(=O)O)cc1)C(=O)O; Trp(6-aza) = N[C@@H](Cc1c[nH]c2cnccc12)C(=O)O; Piperazinyl(4-CH2COOH) = O=C(O)CN1CCN(*)CC1; Gly(N(CH2)3COOH) = O=C(O)CCCNCC(=O)O; NMe4Pal = CN[C@@H](Cc1ccncc1)C(=O)O; X1 = CCCCCCC[C@H](N[*:1])C(=O)[*:2]; X7 = COCCCCC[C@H](N[*:1])C(=O)[*:2]; X5 = CC(=O)NCCCN(CC(=O)[*:2])[*:1]; Gly(N-(CH2)3OMe) = COCCCNCC(=O)O; NMeF = CN[C@@H](Cc1ccccc1)C(=O)O; 4Pal = N[C@@H](Cc1ccncc1)C(=O)O; NMeA = CN[C@@H](C)C(=O)O; Nme = COCCNCC(=O)O; Sar = CNCC(=O)O

Columns and labels:
Myostatin = molecular target: T1, Myostatin (Homo sapiens, UniProt O14793); assay: HepG2 reporter gene assay, Evaluation Procedure (2): 2-concentrations assay, myostatin inhibition; format: cell-based; settings: Myostatin 10 ng/mL, HepG2; for inhibition at 0.03 µM: peptide 30nM, read-out: Myostatin Inhibition 30nM; for inhibition at 0.1 µM: peptide 100nM, read-out: Myostatin Inhibition 100nM
T1 construct: active myostatin (also called mature myostatin) is a homodimer consisting of two C-terminal growth factor domains; purchased R&D systems 788-G8/CF
T1 sequence (O14793 267-375): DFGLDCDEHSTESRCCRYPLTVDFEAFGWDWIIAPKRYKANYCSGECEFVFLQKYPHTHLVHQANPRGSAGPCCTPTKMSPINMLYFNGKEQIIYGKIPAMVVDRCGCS
Outline: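 Myostatin inhibition was measured in a luciferase reporter assay using HepG2 cells transfected with a pGL3 vector containing 12 CAGA repeats upstream of luciferase. After 20 to 24 hours with 10 ng/mL myostatin, cells received One-Glo:PBS (1:1) at 100 µL/well, were shaken for 5 min, and 20 µL/well was moved to 384-well plates and read on an Envision 2104.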

GDF-11 = molecular target: T2, GDF-11 (Homo sapiens, UniProt O95390); assay: HepG2 reporter gene assay, Evaluation Procedure (2): 2-concentrations assay, GDF-11 inhibition; format: cell-based; settings: GDF-11 10 ng/mL; for inhibition at 0.03 µM: HepG2, peptide 30nM, read-out: GDF11 Inhibition 30nM; for inhibition at 0.1 µM: HepG2, peptide 100nM, read-out: GDF11 Inhibition 100nM
T2 construct: purchased R&D systems 1958-GD-G8/CF
T2 sequence (O95390 299-407): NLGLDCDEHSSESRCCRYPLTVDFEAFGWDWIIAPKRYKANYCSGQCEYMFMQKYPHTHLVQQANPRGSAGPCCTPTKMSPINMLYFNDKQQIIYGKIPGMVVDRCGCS
Outline: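 HepG2 cells carrying the transfected pGL3(CAGA)12-luc reporter, a pGL3 vector with luciferase placed downstream of 12 CAGA repeats, were stimulated with GDF-11 at a final 10 ng/mL together with test peptide. Blank wells received no GDF-11 and no peptide. Plates were incubated 20 to 24 hours at 37°C with 5% CO2. Luminescence from One-Glo substrate was read to calculate percent inhibition.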

Compound | inhibition at 0.03 µM (Myostatin) | inhibition at 0.1 µM (Myostatin) | inhibition at 0.03 µM (GDF-11) | inhibition at 0.1 µM (GDF-11)
CCCCCCC[C@@H]1NC(=O)[C@H](Cc2ccccc2)N(C)C(=O)[C@H](CCCNC(=N)N)NC(=O)[C@H](Cc2ccc(C(=O)O)cc2)NC(=O)[C@H](Cc2cccc(OCC(=O)O)c2)NC(=O)CN(C)C(=O)[C@H]([C@@H](C)CC)NC(=O)[C@H](Cc2ccccc2)N(C)C(=O)[C@H](Cc2ccc(O)cc2)NC(=O)[C@H](Cc2c[nH]c3cnccc23)NC(=O)[C@H](C)NC(=O)[C@H](C)NC(=O)CSC[C@H](C(=O)O)NC(=O)[C@H](Cc2ccccc2)N(C)C(=O)[C@H](C)N(C)C1=O [Myostatin_99_v208] ({CH2CO}-AA[Trp(6-aza)]Y[NMeF]I[Sar][Phe(3-OCH2COOH)][Phe(4-COOH)]R[NMeF][X1][NMeA][NMeF][dC]-OH; thioether N-15) | 98% | 100% | 0% | 20%
CCCCCCC[C@@H]1NC(=O)[C@H](Cc2ccncc2)N(C)C(=O)[C@H](CCCNC(=N)N)NC(=O)[C@H](Cc2ccc(C(=O)O)cc2)NC(=O)[C@H](Cc2cccc(OCC(=O)O)c2)NC(=O)CN(C)C(=O)[C@H]([C@@H](C)CC)NC(=O)[C@H](Cc2ccccc2)N(C)C(=O)[C@H](Cc2ccc(O)cc2)NC(=O)[C@H](Cc2c[nH]c3ccccc23)NC(=O)[C@H](C)NC(=O)[C@H](C)NC(=O)CSC[C@H](C(=O)O)NC(=O)[C@H](Cc2ccccc2)N(C)C(=O)[C@H](C)N(C)C1=O [Myostatin_99_v210] ({CH2CO}-AAWY[NMeF]I[Sar][Phe(3-OCH2COOH)][Phe(4-COOH)]R[NMe4Pal][X1][NMeA][NMeF][dC]-OH; thioether N-15) | 95% | 99% | 0% | 7%
CCCCCCC[C@@H]1NC(=O)[C@H](Cc2ccccc2)N(C)C(=O)[C@H](CCCNC(=N)N)NC(=O)[C@H](Cc2ccc(C(=O)O)cc2)NC(=O)[C@H](Cc2cccc(OCC(=O)O)c2)NC(=O)CN(C)C(=O)[C@H]([C@@H](C)CC)NC(=O)[C@H](Cc2ccccc2)N(C)C(=O)[C@H](Cc2ccc(O)cc2)NC(=O)[C@H](Cc2c[nH]c3ccccc23)NC(=O)[C@H](C)NC(=O)[C@H](C)NC(=O)CSC[C@H](C(=O)O)NC(=O)[C@H](Cc2ccncc2)N(C)C(=O)[C@H](C)N(C)C1=O [Myostatin_99_v213] ({CH2CO}-AAWY[NMeF]I[Sar][Phe(3-OCH2COOH)][Phe(4-COOH)]R[NMeF][X1][NMeA][NMe4Pal][dC]-OH; thioether N-15) | 90% | 98% | 0% | 0%
CCCCCCC[C@@H]1NC(=O)[C@H](Cc2ccccc2)N(C)C(=O)[C@H](CCCNC(=N)N)NC(=O)[C@H](Cc2ccncc2)NC(=O)[C@H](Cc2cccc(OCC(=O)O)c2)NC(=O)CN(C)C(=O)[C@H]([C@@H](C)CC)NC(=O)[C@H](Cc2ccccc2)N(C)C(=O)[C@H](Cc2ccc(O)cc2)NC(=O)[C@H](Cc2c[nH]c3ccccc23)NC(=O)[C@@H](CCC(=O)O)NC(=O)[C@H](C)NC(=O)CSC[C@H](C(=O)O)NC(=O)[C@H](Cc2ccccc2)N(C)C(=O)[C@H](C)N(C)C1=O [Myostatin_99_v218] ({CH2CO}-A[dE]WY[NMeF]I[Sar][Phe(3-OCH2COOH)][4Pal]R[NMeF][X1][NMeA][NMeF][dC]-OH; thioether N-15) | 44% | 74% | 0% | 0%
CCCCCCC[C@@H]1NC(=O)[C@H](Cc2ccccc2)N(C)C(=O)[C@H](CCCNC(=N)N)NC(=O)[C@H](Cc2ccc(C(=O)O)cc2)NC(=O)[C@H](Cc2cccc(OCC(=O)O)c2)NC(=O)CN(C)C(=O)[C@H]([C@@H](C)CC)NC(=O)[C@H](Cc2ccccc2)N(C)C(=O)[C@H](Cc2ccc(O)cc2)NC(=O)[C@H](Cc2c[nH]c3ccccc23)NC(=O)[C@H](C)NC(=O)[C@H](C)NC(=O)CSC[C@@H](C(=O)N2CCN(CC(=O)O)CC2)NC(=O)[C@H](Cc2ccccc2)N(C)C(=O)[C@H](C)N(C)C1=O [Myostatin_99_v220] ({CH2CO}-AAWY[NMeF]I[Sar][Phe(3-OCH2COOH)][Phe(4-COOH)]R[NMeF][X1][NMeA][NMeF]C-{Piperazinyl(4-CH2COOH)}; thioether N-15) | 95% | 99% | 0% | 5%
CCCCCCC[C@@H]1NC(=O)[C@H](Cc2ccccc2)N(C)C(=O)[C@H](CCCNC(=N)N)NC(=O)[C@H](Cc2ccc(C(=O)O)cc2)NC(=O)[C@H](Cc2ccncc2)NC(=O)CN(C)C(=O)[C@H]([C@@H](C)CC)NC(=O)[C@H](Cc2ccccc2)N(C)C(=O)[C@H](Cc2ccc(O)cc2)NC(=O)[C@H](Cc2c[nH]c3ccccc23)NC(=O)[C@H](C)NC(=O)CN(CC(=O)O)C(=O)CSC[C@H](C(=O)O)NC(=O)[C@H](Cc2ccccc2)N(C)C(=O)[C@H](C)N(C)C1=O [Myostatin_99_v222] | 93% | 99% | 0% | 8%
CCCCCCC[C@@H]1NC(=O)[C@H](Cc2ccccc2)N(C)C(=O)[C@H](CCCNC(=N)N)NC(=O)[C@H](Cc2ccc(C(=O)O)cc2)NC(=O)[C@H](Cc2ccncc2)NC(=O)CN(C)C(=O)[C@H]([C@@H](C)CC)NC(=O)[C@H](Cc2ccccc2)N(C)C(=O)[C@H](Cc2ccc(O)cc2)NC(=O)[C@H](Cc2c[nH]c3ccccc23)NC(=O)[C@H](C)NC(=O)CN(CCCOC)C(=O)CSC[C@H](C(=O)O)NC(=O)[C@H](Cc2ccccc2)N(C)C(=O)[C@H](C)N(C)C1=O [Myostatin_99_v223] ({CH2CO}-[Gly(N-(CH2)3OMe)]AWY[NMeF]I[Sar][4Pal][Phe(4-COOH)]R[NMeF][X1][NMeA][NMeF][dC]-OH; thioether N-15) | 94% | 99% | 0% | 28%
CCCCCCC[C@@H]1NC(=O)[C@H](Cc2ccccc2)N(C)C(=O)[C@H](CCCNC(=N)N)NC(=O)[C@H](Cc2ccc(C(=O)O)cc2)NC(=O)[C@H](Cc2ccncc2)NC(=O)CN(C)C(=O)[C@H]([C@@H](C)CC)NC(=O)[C@H](Cc2ccccc2)N(C)C(=O)[C@H](Cc2ccc(O)cc2)NC(=O)[C@H](Cc2c[nH]c3ccccc23)NC(=O)[C@H](C)NC(=O)CN(CCOC)C(=O)CSC[C@H](C(=O)O)NC(=O)[C@H](Cc2ccccc2)N(C)C(=O)[C@H](C)N(C)C1=O [Myostatin_99_v224] ({CH2CO}-[Nme]AWY[NMeF]I[Sar][4Pal][Phe(4-COOH)]R[NMeF][X1][NMeA][NMeF][dC]-OH; thioether N-15) | 96% | 99% | 0% | 0%
CCCCCCC[C@@H]1NC(=O)[C@H](Cc2ccccc2)N(C)C(=O)[C@H](CCCNC(=N)N)NC(=O)[C@H](Cc2ccc(C(=O)O)cc2)NC(=O)[C@H](Cc2ccncc2)NC(=O)CN(C)C(=O)[C@H]([C@@H](C)CC)NC(=O)[C@H](Cc2ccccc2)N(C)C(=O)[C@H](Cc2ccc(O)cc2)NC(=O)[C@H](Cc2c[nH]c3ccccc23)NC(=O)[C@H](C)NC(=O)CN(CCCNC(C)=O)C(=O)CSC[C@H](C(=O)O)NC(=O)[C@H](Cc2ccccc2)N(C)C(=O)[C@H](C)N(C)C1=O [Myostatin_99_v225] ({CH2CO}-[X5]AWY[NMeF]I[Sar][4Pal][Phe(4-COOH)]R[NMeF][X1][NMeA][NMeF][dC]-OH; thioether N-15) | 94% | 99% | 0% | 3%
CC[C@H](C)[C@@H]1NC(=O)[C@H](Cc2ccccc2)N(C)C(=O)[C@H](Cc2ccc(O)cc2)NC(=O)[C@H](Cc2c[nH]c3ccccc23)NC(=O)[C@H](C)NC(=O)CN(CCCC(=O)O)C(=O)CSC[C@H](C(=O)O)NC(=O)[C@H](Cc2ccccc2)N(C)C(=O)[C@H](C)N(C)C(=O)[C@H](CCCCCOC)NC(=O)[C@H](Cc2ccccc2)N(C)C(=O)[C@H](CCCNC(=N)N)NC(=O)[C@H](Cc2ccc(C(=O)O)cc2)NC(=O)[C@H](Cc2ccncc2)NC(=O)CN(C)C1=O [Myostatin_99_v228] ({CH2CO}-[Gly(N(CH2)3COOH)]AWY[NMeF]I[Sar][4Pal][Phe(4-COOH)]R[NMeF][X7][NMeA][NMeF][dC]-OH; thioether N-15) | 19% | 60% | 4% | 0%
CCCCCCC[C@@H]1NC(=O)[C@H](Cc2ccccc2)N(C)C(=O)[C@H](CCCNC(=N)N)NC(=O)[C@H](Cc2ccc(C(=O)O)cc2)NC(=O)[C@H](Cc2ccncc2)NC(=O)CN(C)C(=O)[C@H]([C@@H](C)CC)NC(=O)[C@H](Cc2ccccc2)N(C)C(=O)[C@H](Cc2ccc(O)cc2)NC(=O)[C@H](Cc2c[nH]c3ccccc23)NC(=O)[C@H](C)NC(=O)[C@H](CC2CCN(CC(=O)O)CC2)NC(=O)CSC[C@H](C(=O)O)NC(=O)[C@H](Cc2ccccc2)N(C)C(=O)[C@H](C)N(C)C1=O [Myostatin_99_v232] ({CH2CO}-[Ala(1-CH2CO2H-4-piperidyl)]AWY[NMeF]I[Sar][4Pal][Phe(4-COOH)]R[NMeF][X1][NMeA][NMeF][dC]-OH; thioether N-15) | 58% | 84% | 0% | 0%
